In patent US20250092058A1 (priority 2018, published 2025):

Assays:
[1] = Oral PK in SW620/HT29 tumor-bearing SCID mice; conditions: 1.5 mg/kg oral, HPβCD aqueous suspension
Method: Tumor tissues and blood samples were collected at a series of time points of 30 minutes, 1 hour, 4 hours, 12 hours and 24 hours. Each tumor tissue was collected in a tube and immediately frozen with liquid nitrogen; each blood sample was collected in a Li-Heparin LH/1.3 tube ([sequence]), and plasma was recovered by centrifugation (1500 rpm×2 minutes). The collected plasma from each blood sample was transferred into a new tube and immediately frozen in liquid nitrogen. Liquid nitrogen-frozen specimens were then transferred to an −80° C. freezer for analysis.
Drug in plasma is extracted with acidified methanol. An 800 μL aliquot of ice-cold acidified methanol is added to 200 μL plasma and vortexed for 15 sec. […] An 800 μL aliquot of ice-cold acidified methanol is added to 200 μL homogenized tissue and then vortexed for 1 min. The samples are then centrifuged at 13,000 rpm for 5 min. and the supernatant is transferred to a clean 13×100 mm glass tube. Samples are dried under vacuum and stored at −20° C. until analysis. […] Analysis is carried out using an Acquity UPLC system with Fluorescence detection interfaced with Empower software. […] The fluorescence detector is set at the following Excitation (Ex) and Emissions (Em) wavelengths: Ex 370 nm Em 510 nm. […] QC samples are analyzed with each curve.

[2] = tested on: PANC1 cells; test: Matrigel CSC sphere formation; assay type: cell-based, human; conditions: 1, 10 and 100 nM, 20 days
Method: Matrigel stem cell cultural assay. […] Spheres were maintained in Improved MEM containing 20 ng/ml epidermal growth factor, 10 ng/ml basic fibroblast growth factor, […] insulin and 0.4% Bovine Serum Albumin. PANC1cells were plated at a density of 1000 cells/well in 24-well ultralow attachment plates (Sigma-Aldrich). Briefly, 1000 PANC1 cells were suspended in […] medium and mixed thoroughly with […] BD Matrigel™ (BD Bioscience, San Jose, CA, USA). […] Upon solidification, FL118 treatment was administered. Spheres in each well were set in the plate to grow for 20 days and then quantitated visually under a microscope at the magnification of 10×.
To further confirm these findings, we alternatively used the typical matrigel-based CSC sphere formation assay which is know to more closely mimic in vivo situations. In this assay only drug resistant stem-like cancer cells are able to form spheres. […] We performed colony formation of CD44 stem cell marker-positive cells using the stem-cell culture condition. […] Thus, the GFPcODC-positive cell model may be an extremely drug resistant cell model or a less actual cell mimic system after transfection of the GFPcODC-expressing vector and selection process for obtaining GFPcODC-expressing cells, which may not fully mimic the CD44 stem cell marker-positive drug resistant cells. […]

[3] = tested on: PANC1, Mia2, BxPC-3; test: MTT viability of pancreatic cancer cells; assay type: cell-based, human; conditions: 72 h, nM level
Method: MTT assays. […] Each experiment was performed at least in triplicate.
(§1) Next, we determined whether FL118-mediated inhibition of antiapoptotic proteins and induction of pro-apoptotic proteins shown in FIG. 1 would be accompanied by induction of apoptosis and cell killing.

[4] = tested on: HCT116; assay type: cell-based, human; conditions: Table 13; MTT; HCT116 colorectal cancer
[5] = tested on: ABCG2 and Pgp; test: Efflux transporter substrate studies; assay type: in vitro ADME
[6] = calculated from SCID mouse MTD
[7] = tested on: PANC1 and Mia2 cells; test: Western blots of caspase-3 activation and PARP cleavage; assay type: cell-based, human; conditions: 24 h, 10-500 nM
Method: Western blotting/Immunoblotting. […] Fifty μg total protein from each sample were heated at 95° C. for 5 minutes after mixing with equal volume of 2×SDS loading buffer. Samples were separated on 12-15% SDS-polyacrylamide gel electrophoresis (SDS-PAGE) gels and electrotransferred to Pure Nitrocellulose Membranes (Bio-Rad, Hercules, CA). […] Next, the membrane was incubated with different primary antibodies in TBS-T containing 5% BSA overnight at 4° C. in the range of dilutions from 1:500 to 1:2000. After washing with TBS-T, the membrane was incubated in TBS-T buffer containing 5% skim milk and corresponding secondary antibody (1:5000) for 45-60 minutes at room temperature with shaking. Protein of interest was detected using Western Lightning Plus—ECL (Perkin Elmer, Waltham, MA) and visualized by various times (3-120 seconds) of exposure. Actin was detected as the internal control to normalize total protein loading for each sample.
as §1

[8] = tested on: PDX10978; test: Pancreatic cancer PDX10978 in SCID mice; assay type: in vivo
Method: Human pancreatic cancer patient-derived xenograft (PDX) tumor mouse model and treatment. Experiments followed the IACUC-approved mouse protocol. Briefly, human PDAC PDX tumors maintained on SCID mice were isolated, and a piece of non-necrotic tumor tissues (30-40 mg) were subcutaneously transplanted into the flank area of female SCID mice. […] In this study, we used the timesaving intraperitoneal (ip) route for drug administration. […] The formulation process was described in detail in our previous patent (PCT/US2011/058558). […] Tumor length (L) and width (W) were measured using digital vernier calipers 1-3 times per week until the end of experimental studies. The tumor volume (v) was calculated using the formula: v=0.5 (L×W^2). Then the tumor size was divided by the day 0 tumor size as percentage tumor size versus day 0. The mean tumor volume ± standard deviation (SD) at each time point was derived from 5 mice in each group. The tumor curves were made using Sigma Plot software.
It has been recently documented that pancreatic cancer PDXs retain active paracrine/Hedgehog signaling, and desmoplasia is active in PDX tumor mouse models.

[9] = tested on: ERCC6, γ-H2AX; test: Western blots of DNA damage/repair proteins in PANC1; assay type: cell-based, human
Method: (§2) Western blotting/Immunoblotting. […] Fifty μg total protein from each sample were heated at 95° C. for 5 minutes after mixing with equal volume of 2×SDS loading buffer. Samples were separated on 12-15% SDS-polyacrylamide gel electrophoresis (SDS-PAGE) gels and electrotransferred to Pure Nitrocellulose Membranes (Bio-Rad, Hercules, CA). The membrane was then blocked in 5% skim milk in TBS-T buffer (20 mM Tris/HCl pH 7.5, 0.137 M NaCl, and 0.1% Tween 20) at room temperature for 2-3 hours. Next, the membrane was incubated with different primary antibodies in TBS-T containing 5% BSA overnight at 4° C. in the range of dilutions from 1:500 to 1:2000. After washing with TBS-T, the membrane was incubated in TBS-T buffer containing 5% skim milk and corresponding secondary antibody (1:5000) for 45-60 minutes at room temperature with shaking. Protein of interest was detected using Western Lightning Plus—ECL (Perkin Elmer, Waltham, MA) and visualized by various times (3-120 seconds) of exposure. Actin was detected as the internal control to normalize total protein loading for each sample.

[10] = tested on: survivin, Mcl-1, XIAP, cIAP2; test: Western blots of anti-/pro-apoptotic proteins in PANC1 and Mia2; assay type: cell-based, human; conditions: 16 h to 48 h, dose-dependent
Method: as §2

[11] = tested on: HeLa; assay type: cell-based, human; conditions: Table 13; MTT; HeLa cervical cancer
[12] = tested on: CRC PDX27454 tumors; conditions: spray-dried FL118-HPβCD powder in saline with 5% PG, p.o. weekly ×4, half MTD
Method: Colorectal cancer (CRC) patient-derived xenograft (PDX) models were used to evaluate their in vivo antitumor activity. […] Treatments were administered weekly for four weeks on days 0, 7, 14 and 21 and tumor volumes and individual body weights were monitored.
Human xenograft tumors used. In this invention disclose, human SW620 (colorectal), HT29 (colorectal) and HT-3 (retinoblastoma) cancer cell line-established xenograft tumors were used. Human tumor cell line-derived xenograft tumors are initially established by subcutaneously injecting 2-5×10^6 cultured cancer cells in a volume of 100-150 p L medium into the flank area of severe combined immunodeficiency (SCID) mice. The derived tumors are then passed a couple of generations in mice by transplanting 30-50 mg non-necrotic tumor mass via a trocar for experiments or maintenance. […] PDX tumors were originally established on severe Combined Immunodeficiency (SCID) mice from pancreatic and colorectal cancer patient tumor tissues obtained from metastatic sites of the disease in the clinic.
Specifically, PDX tumors were originally established on severe Combined Immunodeficiency (SCID) mice from pancreatic and colorectal cancer patient tumor tissues obtained from metastatic sites of the disease in the clinic. […] The vehicle is the same think aqueous suspension without drug. Experimental SCID mice were subcutaneously implanted with 30-40 mg individual PDX tumors (isolated from maintenance mice) at the flank area for PDX27454 of SCID mice. Treatment with vehicle or a drug of 7Q-series (2) was initiated 7-14 days after the transplanted tumors reached 100-200 mm^3 (designated day 0). The animal model of PDX tumors was orally treated weekly for 4 times (one cycle/course, as shown with black arrows) or only one time drug administration.

SMILES: CC[C@@]1(O)C(=O)OCc2c1cc1n(c2=O)Cc2cc3cc4c(cc3nc2-1)OCO4 [FL118, 10,11-methylenedioxy-camptothecin]
- concentration in tumor versus serum [1]: many folds higher than those in serum
- sphere formation [2]: high efficacy in inhibiting sphere formation
- pancreatic cancer cell viability [3]: effectively inhibited pancreatic cancer cell viability
- IC50 [4]: 66.5 ± 11.2 nM
- substrate of ABCG2 and Pgp [5]: not a substrate of ABCG2 and Pgp
- calculated FL118 MTD for dogs [6]: 2 mg/kg
- caspase-3 activation and PARP cleavage [7]: strongly induces caspase-3 activation and PARP cleavage
- antitumor efficacy ([8]; 5 mg/kg ip qw×4): only able to delay PDX10978 tumor growth
- antitumor efficacy, single agent ([8]; FL118 0.75 mg/kg or gemcitabine 60 mg/kg ip qw×4): only delayed tumor growth
- expression of ERCC6 and γ-H2AX [9]: strongly decreased the expression of ERCC6 and induced γ-H2AX
- expression of antiapoptotic proteins (XIAP, cIAP2, Mcl-1 or survivin) [10]: differentially modulates the expression of antiapoptotic proteins
- IC50 [11]: 34.7 ± 9.9 nM
- antitumor activity [12]: great antitumor activity
- toxicity (mouse body weight changes) [12]: no toxicity at all
